{"source": "patent US12416052B2", "about": "“Capturing, concentrating, and detecting microbes in a sample using magnetic ionic liquids and recombinase polymerase amplification” (priority 2019, dated 2025)", "key": {"[1]": {"test_system": "S. enterica subsp. houtenae", "test": "MIL-based whole-cell extraction", "design": "species or system Salmonella enterica", "details": "1×10^6 CFU mL^−1 in TSB, 15 μL MIL", "protocol": "(§1) A universal schematic for MIL-based cell extraction is depicted in FIG. 7B. A 1 mL volume of diluted cell suspension was added to a flat-bottomed 4-mL screw cap glass vial. Fifteen microliters of either the Ni(II) or Dy(III) MIL was added and dispersed into microdroplets by vortex agitation for 30 s. The aqueous phase was decanted following dispersive extraction, and the MIL was subjected to a brief wash step using 1 mL of nuclease-free water (Integrated DNA Technologies, Coralville, IA, USA) to ensure adequate removal of loosely or incidentally bound cells. After washing, release of viable cells from the MIL extraction phase was carried out using a “back-extraction” step accomplished through addition of 1 mL of an ionically-rich nutritive medium comprised of 20 g L^−1 tryptone and 10 g L^−1 NaCl, followed by a 120 s vortex step. After back-extraction, aliquots of the cell-enriched back-extraction medium were enumerated using the track dilution method using 100×100 mm square, gridded TSA, BSA, CA or VRBGA plates.\n(§2) Following back-extraction, aliquots of the cell-enriched back-extraction medium were serially diluted in 0.1% peptone water and a 10 μL aliquot of each dilution was applied to a separate lane on square plates containing an appropriate agar medium. The plates were then tilted at an approximately 80° angle for 15 min to allow the droplets to travel toward the opposite end of the plate. The plates were incubated for 24 h at 37° C. (TSA, VRBGA), for 48 h at 37° C. (BSA) or for 24 h at 37° C. (CA). Colonies were counted and colony forming units (CFU) were determined. The enrichment factor (EF) for MIL-based extraction was calculated using Equation 1, where CMIL represents the concentration of bacteria in suspension following extraction using the MIL and CS is the initial concentration of bacteria in the sample.\n(§3) In order to explore the broader utility of our approach, evaluation of additional cell types is needed. We began this extended evaluation of the Ni(II) MIL with seven representative DNA subgroups of Salmonella and eight strains of E. coli O157:H7. Briefly, a 1 mL aliquot of TSB was inoculated with 1×10^6 CFU mL^−1 of bacteria, and spiked with 15 μL of the Ni(II) MIL. MIL-based extraction was performed and 10 μL aliquots of the back-extraction solution were enumerated using TSA and BSA plates (Salmonella) or TSA plates (E. coli O157:H7). […] We later determined that VRBGA was a suitable common medium for this purpose and used this in our statistical analysis. Average CFU counts were compared to standards that were not exposed to the Ni(II) MIL. Enrichment factors were calculated for Salmonella on both non-selective (TSA) and selective agars (BSA) and for E. coli O157:H7 on non-selective agar (TSA). […] Note: As BSA is a Salmonella-specific agar E. coli O157:H7 was not plated to BSA in this example."}, "[2]": {"test_system": "S. enterica subsp. indica", "test": "MIL-based whole-cell extraction", "design": "species or system Salmonella enterica", "details": "1×10^6 CFU mL^−1 in TSB, 15 μL MIL", "protocol": "as §1, §2, §3"}, "[3]": {"test_system": "S. enterica subsp. salamae", "test": "MIL-based whole-cell extraction", "design": "species or system Salmonella enterica", "details": "1×10^6 CFU mL^−1 in TSB, 15 μL MIL", "protocol": "as §1, §2, §3"}, "[4]": {"test_system": "S. typhimurium ATCC 14028", "test": "Exposure of cells and plating on non-selective (TSA) and selective (BSA) agar (viability, injury, toxicity)", "type": "cell-based, Salmonella enterica", "details": "exposure 0 to 15 min, 15 μL MIL", "protocol": "To examine whether exposure time to the Ni(II) MIL affected cell viability, MIL-based whole-cell extraction was performed using the Ni(II) MIL, and cell-enriched back-extraction media were enumerated at 0, 5, 10 and 15 min on both TSA and BSA. To evaluate toxicity of the [EMIM^+][SCN^−] IL, one milliliter of diluted S. typhimurium ATCC 14028 cell suspension was added to a 4-mL screw cap glass vial. A 5% (vol/vol) or 50% (vol/vol) aqueous solution of 1-ethyl-3-methylimidazolium thiocyanate (“[EMIM^+][SCN^−]”) (IoLiTec, Tuscaloosa, AL, USA) was added and mixed by vortexing for 30 s. Aliquots were enumerated at 0, 5, 10 and 15 min using TSA and BSA.\nOne milliliter of diluted S. typhimurium ATCC 14028 cell suspension was added to a 4-mL screw cap glass vial. Fifteen microliters of either the Dy(III) MIL or 2-10 μL of 100 mM DyCh solution or 10 mg of the ammonium tetra(hexafluoroaceto)dysprosium salt (15) ([NH4^+][Dy(hfacac)4^−]) (“Dy(III) ammonium salt”) was added and dispersed by vortex agitation for 30 s. Aliquots of the Dy(III) MIL- or Dy(III) ammonium salt-exposed cell suspension were enumerated using square TSA or BSA plates (BD).\nBecause culture-based methods depend on sample preparation steps that preserve bacterial viability, potential deleterious cytotoxic effects imparted by MIL extractants must be considered. To begin our further study of MIL-bacterial interactions, we selected S. typhimurium ATCC 14028 as a model gram-negative pathogen and the Ni(II) MIL as extractant. Briefly, a 1 mL aliquot of TSB was inoculated with 1×10^5 CFU mL^−1 of bacteria and spiked with 15 μL of the Ni(II) MIL, and the general schematic for MIL-based extraction and recovery followed as shown in FIG. 7B. After extraction, 10 μL aliquots of the back-extraction solution were enumerated at 0, 5, 10 and 15 min using TSA and BSA. Average CFU counts were compared to a standard that was not exposed to the Ni(II) MIL. […] To better understand the data in FIG. 8, statistical analyses of Ni(II) MIL capture precision and CFU count variation as a function of MIL exposure time were performed. Variation in MIL capture may stem from inherent randomness of MIL dispersion and coalescence behaviors.\nThe effects of 5% or 50% (vol/vol) aqueous solutions of the [EMIM^+][SCN^−] IL on the viability of the cells were also evaluated. Average CFU counts were compared to a standard not exposed to [EMIM^+][SCN^−]. In our hands, when S. typhimurium was exposed to 50% (vol/vol) solutions of [EMIM^+][SCN^−], no recovery was observed on either TSA or BSA after 5 min of exposure.\nTo gain further insight into this phenomenon, the effect of free elemental dysprosium was evaluated by subjecting the cells to 0.1 mM and 1.0 mM solutions of DyCl3. The cells were exposed to the metal salt solutions for 30 s and subsequently plated on selective and non-selective media.\nWhile the metal did show cytotoxicity, it cannot be completely responsible for the Dy(III) MIL's effect on the cells, as no flocculation was seen and growth was still observed. Since both the Ni(II) and the Dy(III) MILs contain identical cations ([P6,6,6,14^+]), the role of the anion structure was evaluated. The anion of the Dy(III) MIL contains one additional hexafluoroacetylacetonate ligand than the Ni(II) MIL (FIG. 7), making the coordination geometry of the two complexes different. To test the effects of the anion structure, cells were subjected to 10 mg of the Dy(III) ammonium salt. After a 30 second vortex, similar flocculation was observed as when the cells were exposed to the native Dy(III) MIL."}}, "note": "“Also recorded” adds a separate entry of the source.", "data": [{"compound": "CCCCCCCCCCCCCC[P+](CCCCCC)(CCCCCC)CCCCCC.O=C([CH-]C(=O)C(F)(F)F)C(F)(F)F.O=C([CH-]C(=O)C(F)(F)F)C(F)(F)F.O=C([CH-]C(=O)C(F)(F)F)C(F)(F)F.[Ni+2]", "note": "[Ni(II) MIL, [P66614^+][Ni(hfacac)3^−]]", "values": [{"measurement": "Enrichment Factor (BSA)", "setting": "[1]", "value": 8}, {"measurement": "Enrichment Factor (TSA)", "setting": "[1]", "value": 8}, {"measurement": "Enrichment Factor (BSA)", "setting": "[2]", "value": 4}, {"measurement": "Enrichment Factor (TSA)", "setting": "[2]", "value": 3}, {"measurement": "Enrichment Factor (BSA)", "setting": "[3]", "value": 9}, {"measurement": "Enrichment Factor (TSA)", "setting": "[3]", "value": 12}, {"measurement": "injury to S. typhimurium: average CFU counts on TSA and BSA", "setting": "[4]", "value": "did not cause detectable injury; also recorded: appeared to be similar"}]}]}
